Key:
Experiment in all cases: relative viability (nuclei count vs DMSO), 5 days (fraction); higher = more cells survive
[1] = compound: CC1=CC(=C(N1C2=CC=C(C=C2)Cl)C)C(=O)CN3CCCCC3 [IU1-47] + O=C(CCCCCCC(=O)Nc1ccccc1)NO [Vorinostat] (partner 1 µM)
Summary of the method: (§1)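 Lung cancer cell lines, seeded in 1536-well plates, were treated the following day by pin tool with a single drug or with five library-drug doses (not always all listed) in √10 steps on top of a fixed anchor-drug dose. Cells were fixed and nuclei stained in one step after 5 days, and nuclei were counted. Relative viability is the nuclei count for treated wells divided by that for vehicle wells, reported as medians of duplicate plates.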

[2] = compound: Cc1nc(C(=O)NCC(=O)O)c(O)c2ccc(Oc3ccccc3)cc12 [FG-4592] + CCNC(=O)c1noc(-c2cc(C(C)C)c(O)cc2O)c1-c1ccc(CN2CCOCC2)cc1 [Luminespib] (partner 0.01 µM)
Summary of the method: as §1

[3] = compound: Cc1nc(C(=O)NCC(=O)O)c(O)c2ccc(Oc3ccccc3)cc12 [FG-4592] + Cc1cc(Nc2cc(N3CCN(C)CC3)nc(Sc3ccc(NC(=O)C4CC4)cc3)n2)n[nH]1 [Tozasertib] (partner 0.1 µM)
Summary of the method: as §1

[4] = compound: Cc1nc(C(=O)NCC(=O)O)c(O)c2ccc(Oc3ccccc3)cc12 [FG-4592] + O=C(c1cc(Cc2n[nH]c(=O)c3ccccc23)ccc1F)N1CCN(C(=O)C2CC2)CC1 [Olaparib] (partner 8 µM)
Summary of the method: as §1

Row | Cell Line | relative viability ([1]; first compound 0.08 µM) | relative viability ([1]; first compound 0.253 µM) | relative viability ([1]; first compound 0.8 µM) | relative viability ([1]; first compound 2.53 µM) | relative viability ([1]; first compound 8 µM) | relative viability ([2]; first compound 0.08 µM) | relative viability ([2]; first compound 0.253 µM) | relative viability ([2]; first compound 0.8 µM) | relative viability ([2]; first compound 2.53 µM) | relative viability ([2]; first compound 8 µM) | relative viability ([3]; first compound 0.08 µM) | relative viability ([3]; first compound 0.253 µM) | relative viability ([3]; first compound 0.8 µM) | relative viability ([3]; first compound 2.53 µM) | relative viability ([3]; first compound 8 µM) | relative viability ([4]; first compound 0.08 µM) | relative viability ([4]; first compound 0.253 µM) | relative viability ([4]; first compound 0.8 µM) | relative viability ([4]; first compound 2.53 µM) | relative viability ([4]; first compound 8 µM)
1 | NCI-H1650 | 0.631 | 0.523 | 0.62 | 0.564 | 0.722 | 0.206 | 0.208 | 0.219 | 0.197 | 0.209 | 0.409 | 0.277 | 0.427 | 0.456 | 0.406 | 0.786 | 0.721 | 0.843 | 0.781 | 0.869
2 | BEN | 0.605 | 0.653 | 0.681 | 0.564 | 0.544 | 0.337 | 0.386 | 0.39 | 0.437 | 0.218 | 0.564 | 0.459 | 0.475 | 0.676 | 0.452 | 1.13 | 0.99 | 1.07 | 1.02 | 0.956
3 | EMC-BAC-2 | 0.456 | 0.488 | 0.42 | 0.442 | 0.419 | 1.2 | 1.11 | 1.1 | 1.17 | 1.11 | 0.262 | 0.277 | 0.27 | 0.301 | 0.286 | 0.469 | 0.491 | 0.456 | 0.49 | 0.492
4 | LU99A | 0.557 | 0.513 | 0.5 | 0.579 | 0.426 | 0.287 | 0.254 | 0.294 | 0.234 | 0.279 | 0.289 | 0.293 | 0.243 | 0.334 | 0.297 | 0.268 | 0.242 | – | 0.276 | 0.29
5 | ABC-1 | 1.32 | 1.08 | 0.987 | – | 1.06 | 0.501 | 0.515 | – | 0.413 | 0.42 | 0.177 | 0.178 | 0.148 | 0.187 | 0.149 | 0.781 | 0.798 | – | 1.13 | 1.07
6 | NCI-H2170 | 0.997 | 0.973 | 0.921 | 0.748 | 0.747 | 0.653 | 0.62 | 0.538 | 0.606 | 0.501 | 0.704 | 0.622 | 0.726 | 0.777 | 0.704 | 0.573 | 0.547 | 0.707 | 0.664 | 0.52
7 | NCI-H1299 | – | – | – | – | – | – | – | – | – | – | – | – | – | – | – | 0.935 | 0.906 | 1.01 | 1.01 | 0.971
8 | EBC-1 | – | – | – | – | – | – | – | – | – | – | – | – | – | – | – | 0.83 | 0.663 | 0.718 | 0.659 | 0.662
9 | NCI-H2347 | 0.668 | 0.628 | 0.662 | 0.444 | 0.528 | 0.4 | – | 0.258 | 0.323 | 0.293 | 0.415 | – | 0.621 | 0.315 | 0.52 | 0.622 | 0.485 | 0.543 | 0.596 | 0.607
10 | NCI-H1993 | 0.635 | 0.858 | 0.819 | 0.835 | 0.718 | 0.806 | 0.868 | 0.771 | 0.984 | 0.869 | 0.613 | 0.584 | 0.604 | 0.441 | 0.548 | 0.947 | 0.926 | – | 1.01 | 0.929
11 | NCI-H322M | 0.935 | 0.968 | 0.907 | 0.894 | 0.885 | 0.82 | 0.841 | 0.666 | 0.818 | 0.623 | 0.469 | 0.46 | 0.442 | 0.518 | 0.396 | – | 0.746 | 0.713 | 0.766 | 0.897
12 | NCI-H838 | 0.768 | 0.746 | 0.834 | 0.689 | 0.64 | 0.324 | 0.179 | 0.263 | 0.386 | 0.272 | 0.296 | 0.246 | 0.279 | 0.242 | 0.26 | 0.796 | 0.71 | 0.796 | 0.756 | 0.806
13 | HARA | 0.421 | 0.679 | 0.646 | 0.575 | 0.479 | 0.73 | 0.787 | 0.834 | 0.621 | 0.709 | 0.12 | 0.138 | 0.0931 | 0.115 | 0.104 | – | – | – | 0.738 | 0.987
14 | NCI-H2087 | 0.902 | 0.716 | 0.83 | 0.723 | 0.489 | 0.196 | 0.151 | 0.142 | 0.151 | 0.148 | 0.234 | 0.205 | 0.279 | 0.175 | 0.269 | 0.561 | 0.51 | 0.645 | – | 0.475
15 | NCI-H1437 | 0.807 | 0.801 | 0.81 | 0.735 | 0.801 | 1.21 | 1.11 | 1.27 | 0.984 | 0.95 | 0.397 | 0.384 | 0.458 | 0.375 | 0.33 | 0.581 | 0.602 | 0.679 | 0.651 | 0.6
16 | NCI-H1792 | – | – | – | – | – | 0.36 | 0.492 | 0.454 | 0.413 | 0.478 | – | – | – | – | – | 0.487 | 0.432 | – | 0.457 | 0.497
17 | A549 | – | – | – | – | – | – | – | – | – | – | – | – | – | – | – | 0.252 | 0.274 | – | 0.44 | 0.385
18 | NCI-H1563 | – | – | – | – | – | 0.552 | 0.528 | 0.537 | 0.534 | 0.535 | – | – | – | – | – | – | – | – | – | –
19 | HCC-78 | 0.557 | 0.432 | 0.463 | 0.397 | 0.438 | – | – | – | – | – | 0.402 | 0.481 | 0.491 | 0.486 | 0.414 | 0.717 | – | 0.788 | 0.759 | 0.733
20 | IA-LM | 0.951 | 1.13 | 1.11 | 0.444 | 1.06 | – | – | – | – | – | – | – | – | – | – | 0.712 | 0.623 | 0.663 | 0.81 | 0.727
21 | NCI-H1703 | – | – | – | – | – | – | – | – | – | – | – | – | – | – | – | 0.428 | 0.337 | 0.336 | 0.341 | 0.423
22 | NCI-H1648 | 0.455 | 0.402 | 0.999 | 0.265 | 0.399 | – | – | – | – | – | 0.536 | 0.527 | 0.515 | 0.47 | 0.542 | 0.712 | 0.647 | – | 0.483 | 1.43
